Assay results from PMC2724550, “Citrus auraptene suppresses cyclin D1 and significantly delays N-methyl nitrosourea induced mammary carcinogenesis in female Sprague-Dawley rats” (BMC Cancer, 2009).

Legend:
[1] = test system: MDA-MB-231 cells; assay: MDA-MB-231 cell proliferation assay (MTT); type: cell-based, human
Protocol: The human breast carcinoma cell line MDA-MB-231 was obtained from ATCC (Manassas, VA) and grown in a sterile humidified environment at 37°C and 5% CO2: 95% air with complete DMEM media. The proliferation study was done by MTT assay which uses a tetrazolium compound [3-(4, 5-dimethylthiazol-2-yl)-2,5-diphenyltetrazolium bromide; MTT], which is converted into a formazan product by living cells. The MDA-MB-231 cells were plated in a 96 well plate at 12,500 cells/well at a confluency of 40%. The serum containing media was replaced with serum free media 5 hrs before treatment. The cells were then treated with auraptene at 1 – 50 μM auraptene in DMSO (0.1%, v/v). The control cells received vehicle only (DMSO, 0.1% v/v). After 24 hrs of treatment the cells were treated with MTT for 2 h and the absorbance was measured at 540 nm.
Figure 2 Effects of auraptene on human breast carcinoma cells. (A) Effects of auraptene on MDA-MB-231 cell proliferation. Cells were serum starved for 5 h and then treated with 1–50 μM auraptene in […]. Cell proliferation was assessed using the MTT reagent. Figures represent % vehicle control (means ± S.E.) # Replicates = 2 plates at 6 wells each for the treatment groups and 12 wells for the control group (* statistically different from control group, p < 0.05, One-way ANOVA, Tukey test). (B) Effects of auraptene on MCF-7 cell proliferation. Cells were serum starved for 24 h. At 22 h after serum starvation the cells were treated with 1–50 μM auraptene in […]. At 24 h serum starvation, the cells were treated with IGF-1 (10 ng/mL). Cell proliferation was assessed using the MTS reagent. Figures represent % vehicle control (mean± S.E.) # Replicates = 2 plates at 6 wells each for the treatment groups. (* statistically different from IGF-1 group, p < 0.05, One-way ANOVA, Tukey test). (C) Effects of auraptene on IGF-1 induced cyclin D1 expression. MCF-7 cells were serum starved for 24 h. At 22 h after serum starvation the cells were treated with10 μM auraptene in […]. At 24 h serum starvation the cells were treated with IGF-1 (10 ng/mL). The cells were harvested at the 15, 30 minutes and at 1 h, 2 h, 4 h, 8 h and 24 h. The cell lysates were probed for cyclin D1. […] The lower band (36 KD) is cyclin D1 and the upper band is β-actin (43 KD).

[2] = test system: eukaryotic Initiation Factor 4E (eIF4E); assay: Western blot of eIF4E expression in rat mammary tumors; type: in vivo, female Sprague-Dawley rats; conditions: dietary auraptene, data not shown
Protocol: The mammary tumors from the female Sprague-Dawley rats were analyzed for cyclin D1 expression and eukaryotic Initiation Factor 4E (eIF4E) as previously described. Briefly, samples were first homogenized in RIPA buffer [50 mM Tris-HCL (pH 7.4), 1% Triton-X, 150 mM NaCl, 1 mM EDTA, 1 mM sodium orthovanadate, 1 mM PMSF, 1 μg of aprotinin, leupeptin and pepstatin and 1 mM sodium fluoride]. The proteins were measured by Bradford method (using BSA as a standard), followed by the addition of 2 × sample buffer [0.125 M Tris, 10% (w/v) SDS, 40% (v/v) glycerol, 0.04% (w/v) bromophenol blue, and 80 mM dithiothreitol]. Samples were heated to 95°C for 5 min, and 10 μg of protein/well was loaded and resolved. The proteins were then transferred and detected for cyclin D1 expression as mentioned above. Lysate from MCF-7 cells treated with IGF-1 was used as positive control for cyclin D1.

SMILES: CC(C)=CCC/C(C)=C/COc1ccc2ccc(=O)oc2c1 [auraptene]
- reduction in MDA-MB-231 cell proliferation ([1]; 10 μM auraptene, 24 hrs, MTT): about 23%
- suppression of MDA-MB-231 cell proliferation ([1]; 25 μM auraptene, 24 hrs, MTT): 85%
- suppression of MDA-MB-231 cell proliferation ([1]; 50 μM auraptene compared with 25 μM): did not achieve any higher suppression of cell proliferation
- IC50 ([1]; Homo sapiens, MDA-MB-231, 24 hrs treatment, serum free media, MTT, read-out: concentration suppressing MDA-MB-231 cell proliferation by 50%): 12 µM
- eIF4E protein expression in rat mammary tumors [2]: no significant change
